# Patent US20240246931A1, “COMPOUNDS AS PD1/PD-L1 INHIBITORS AND METHODS THEREOF” (JUBILANT PRODEL LLC, priority 2021, published 2024)
# Target: T1, PD-1/PD-L1 interaction (Homo sapiens, UniProt Q9NZQ7)
# T1 construct: purchased CisBio 63ADK000CPAPEG
# Assay: PD-1/PD-L1 HTRF binding assay (CisBio kit)
# Conditions: HTRF PD1/PD-L1 inhibition assay
# Experimental: PD-L1 Enzyme Assay: Homogenous Time-Resolved Fluorescence (HTRF) Binding Assay
# All binding studies were performed using PD-1/PD-L1 Binding Assay Kit from CisBio (Catalog #63ADK000CPAPEG), according to the manufacturer's protocol. The interaction between Tag1-PD-1 and […] was detected by anti-Tag1-Eu^3+ (HTRF donor) and anti-Tag2-XL665 (HTRF acceptor). When the donor and acceptor antibodies were brought to close proximity due to PD-1 and PD-L1 binding, excitation of the donor antibody triggered fluorescent resonance energy transfer (FRET) towards the acceptor antibody, which in turn emitted specifically at 665 nm. This specific signal is positively proportional to PD-1/PD-L1 interaction. The compounds blocking PD-1/PD-L1 interaction will cause a reduction in HTRF signal. The necessary reagents were mixed in the following order: 2 μL compounds (or diluents buffer), 4 μL PD-L1 protein, 4 μL PD-1 protein. After an incubation of 15 minutes, 5 μL of anti-Tag1-Eu^3+ and 5 μL of anti-Tag2-XL665 were added. The plate was sealed and incubated at room temperature for 1 h. The fluorescence emission was read at two different wavelengths (665 nm and 620 nm) on a BMG PheraStar® multi-plate reader.
# Results were calculated from the 665 nm and 620 nm fluorescence signal and expressed in HTRF ratio=(665 nm/620 nm)×10^4.
# Compounds having IC50<100 nM are designated as “A”; 100-500 nM are designated as “B”; and >500 nM are designated as “C” respectively.
# T1 sequence (Q9NZQ7 19-238 limits assumed): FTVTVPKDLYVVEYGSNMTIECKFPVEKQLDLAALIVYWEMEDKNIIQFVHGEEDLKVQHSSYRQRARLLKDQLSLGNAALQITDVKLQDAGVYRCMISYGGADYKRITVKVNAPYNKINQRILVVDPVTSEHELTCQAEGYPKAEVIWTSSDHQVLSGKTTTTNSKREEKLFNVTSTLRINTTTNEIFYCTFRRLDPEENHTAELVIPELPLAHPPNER
row,Compound,IC50 [nM]
1,"Cc1c(COc2cc(OCCCCF)c(CN3CC[C@H]3CO)c3c2CCC3)cccc1-c1ccccc1 [Example 33, (S)-(1-((5-(4-fluorobutoxy)-7-((2-methyl-[1,1′-biphenyl]-3-yl)methoxy)-2,3-dihydro-1H-inden-4-yl)methyl)azetidin-2-yl)methanol]",100 to 500
2,"N#Cc1cccc(COc2cc(OCc3cccc(-c4ccccc4)c3C#N)c3c(c2CN2CCCC4CC42CO)CCC3)c1 (stereo not drawn) [Example 36, 3-(((6-((3-cyanobenzyl)oxy)-7-((1-(hydroxymethyl)-2-azabicyclo[4.1.0]heptan-2-yl)methyl)-2,3-dihydro-1H-inden-4-yl)oxy)methyl)-[1,1′-biphenyl]-2-carbonitrile]",100 to 500
3,"Cc1c(COc2cc(OCc3cnn(C)c3)c(CN3CCCC[C@H]3CO)c3c2CCC3)cccc1-c1ccccc1 [Example 39, (S)-(1-((5-((1-methyl-1H-pyrazol-4-yl)methoxy)-7-((2-methyl-[1,1′-biphenyl]-3-yl)methoxy)-2,3-dihydro-1H-inden-4-yl)methyl)piperidin-2-yl)methanol]",100 to 500
4,"Cc1c(COc2cc(OCc3cscn3)c(CN3CCC3CO)c3c2CCC3)cccc1-c1ccccc1 (stereo not drawn) [Example 40, (1-((7-((2-methyl-[1,1′-biphenyl]-3-yl)methoxy)-5-(thiazol-4-ylmethoxy)-2,3-dihydro-1H-inden-4-yl)methyl)azetidin-2-yl)methanol]",100 to 500
5,"Cc1c(COc2cc(OCc3cn(C)cn3)c(CN3CCC3CO)c3c2CCC3)cccc1-c1ccccc1 (stereo not drawn) [Example 41, (1-((5-((1-methyl-1H-imidazol-4-yl)methoxy)-7-((2-methyl-[1,1′-biphenyl]-3-yl)methoxy)-2,3-dihydro-1H-inden-4-yl)methyl)azetidin-2-yl)methanol]",100 to 500
6,"Cc1c(COc2cc(OCc3cocn3)c(CN3CCC3CO)c3c2CCC3)cccc1-c1ccccc1 (stereo not drawn) [Example 43, (1-((7-((2-methyl-[1,1′-biphenyl]-3-yl)methoxy)-5-(oxazol-4-ylmethoxy)-2,3-dihydro-1H-inden-4-yl)methyl)azetidin-2-yl)methanol]",100 to 500
7,"Cc1c(COc2cc(OCc3cncc(C#N)c3)c(CN3CCCC[C@H]3CO)c3c2CCC3)cccc1-c1ccc(F)cc1 [Example 46, (S)-5-(((7-((4′-fluoro-2-methyl-[1,1′-biphenyl]-3-yl)methoxy)-4-((2-(hydroxymethyl)piperidin-1-yl)methyl)-2,3-dihydro-1H-inden-5-yl)oxy)methyl)nicotinonitrile]",100 to 500
8,"Cc1c(COc2cc(OCc3cncc(C#N)c3)c(CN3CC4(CC4)C[C@H]3CO)c3c2CCC3)cccc1-c1ccc(F)cc1 [Example 47, (S)-5-(((7-((4′-fluoro-2-methyl-[1,1′-biphenyl]-3-yl)methoxy)-4-((6-(hydroxymethyl)-5-azaspiro[2.4]heptan-5-yl)methyl)-2,3-dihydro-1H-inden-5-yl)oxy)methyl)nicotinonitrile]",100 to 500
9,"Cc1c(COc2cc(OCc3cncc(C#N)c3)c(CN3CCC[C@H]3CO)c3c2CCC3)cccc1-c1ccc(F)cc1 [Example 48, (S)-5-(((7-((4′-fluoro-2-methyl-[1,1′-biphenyl]-3-yl)methoxy)-4-((2-(hydroxymethyl)pyrrolidin-1-yl)methyl)-2,3-dihydro-1H-inden-5-yl)oxy)methyl)nicotinonitrile]",100 to 500
10,"Cc1c(COc2cc(OCc3cncc(C#N)c3)c(C(=O)N3CCC[C@H]3CO)c3c2CCC3)cccc1-c1ccccc1 [Example 50, (S)-5-(((4-(2-(hydroxymethyl)pyrrolidine-1-carbonyl)-7-((2-methyl-[1,1′-biphenyl]-3-yl)methoxy)-2,3-dihydro-1H-inden-5-yl)oxy)methyl)nicotinonitrile]",100 to 500

# Further lines, results first:
row,IC50 [nM],Compound
1,100 to 500,"Cc1c(COc2cc(OCc3cncc(C#N)c3)c(CN3CC(F)(F)CCC3CO)c3c2CCC3)cccc1-c1ccccc1 (stereo not drawn) [Example 12, 5-(((4-((5,5-difluoro-2-(hydroxymethyl)piperidin-1-yl)methyl)-7-((2-methyl-[1,1′-biphenyl]-3-yl)methoxy)-2,3-dihydro-1H-inden-5-yl)oxy)methyl)nicotinonitrile]"
2,< 100,"Cc1c(COc2cc(OCc3cncc(C#N)c3)c(CN3CCN(C)CC3CO)c3c2CCC3)cccc1-c1ccccc1 (stereo not drawn) [Example 13, 5-(((4-((2-(hydroxymethyl)-4-methylpiperazin-1-yl)methyl)-7-((2-methyl-[1,1′-biphenyl]-3-yl)methoxy)-2,3-dihydro-1H-inden-5-yl)oxy)methyl)nicotinonitrile]"
3,< 100,"Cc1c(COc2cc(OCc3cncc(C#N)c3)c(CN3CC(CO)C3)c3c2CCC3)cccc1-c1ccccc1 [Example 14, 5-(((4-((3-(hydroxymethyl)azetidin-1-yl)methyl)-7-((2-methyl-[1,1′-biphenyl]-3-yl)methoxy)-2,3-dihydro-1H-inden-5-yl)oxy)methyl)nicotinonitrile]"
4,< 100,"Cc1c(COc2cc(OCc3cncc(C#N)c3)c(CN3CC[C@@H](CO)C3)c3c2CCC3)cccc1-c1ccccc1 [Example 15, (R)-5-(((4-((3-(hydroxymethyl)pyrrolidin-1-yl)methyl)-7-((2-methyl-[1,1′-biphenyl]-3-yl)methoxy)-2,3-dihydro-1H-inden-5-yl)oxy)methyl)nicotinonitrile]"
5,< 100,"Cc1c(COc2cc(OCc3cncc(C#N)c3)c(CN3CCC[C@H](CO)C3)c3c2CCC3)cccc1-c1ccccc1 [Example 16, (S)-5-(((4-((3-(hydroxymethyl)piperidin-1-yl)methyl)-7-((2-methyl-[1,1′-biphenyl]-3-yl)methoxy)-2,3-dihydro-1H-inden-5-yl)oxy)methyl)nicotinonitrile]"
6,< 100,"Cc1c(COc2cc(OCc3cncc(C#N)c3)c(CN3CCC(CO)CC3)c3c2CCC3)cccc1-c1ccccc1 [Example 17, 5-(((4-((4-(hydroxymethyl)piperidin-1-yl)methyl)-7-((2-methyl-[1,1′-biphenyl]-3-yl)methoxy)-2,3-dihydro-1H-inden-5-yl)oxy)methyl)nicotinonitrile]"
7,< 100,"Cc1c(COc2cc(OCc3cncc(C#N)c3)c(CN3CC[C@H](CO)C3)c3c2CCC3)cccc1-c1ccccc1 [Example 18, (S)-5-(((4-((3-(hydroxymethyl)pyrrolidin-1-yl)methyl)-7-((2-methyl-[1,1′-biphenyl]-3-yl)methoxy)-2,3-dihydro-1H-inden-5-yl)oxy)methyl)nicotinonitrile]"
8,< 100,"Cc1c(COc2cc(OCc3cncc(C#N)c3)c(CN3CCC[C@@H]3CO)c3c2CCC3)cccc1-c1ccccc1 [Example 19, (R)-5-(((4-((2-(hydroxymethyl)pyrrolidin-1-yl)methyl)-7-((2-methyl-[1,1′-biphenyl]-3-yl)methoxy)-2,3-dihydro-1H-inden-5-yl)oxy)methyl)nicotinonitrile]"
9,< 100,"Cc1c(COc2cc(OCc3cncc(C#N)c3)c(CN3CCCCCC3CO)c3c2CCC3)cccc1-c1ccccc1 (stereo not drawn) [Example 20, 5-(((4-((2-(hydroxymethyl)azepan-1-yl)methyl)-7-((2-methyl-[1,1′-biphenyl]-3-yl)methoxy)-2,3-dihydro-1H-inden-5-yl)oxy)methyl)nicotinonitrile]"
10,< 100,"Cc1c(COc2cc(OCc3cncc(C#N)c3)c(CN3CCC[C@@H](CO)C3)c3c2CCC3)cccc1-c1ccccc1 [Example 21, (R)-5-(((4-((3-(hydroxymethyl)piperidin-1-yl)methyl)-7-((2-methyl-[1,1′-biphenyl]-3-yl)methoxy)-2,3-dihydro-1H-inden-5-yl)oxy)methyl)nicotinonitrile 2,2,2-trifluoroacetate]"
11,< 100,"Cc1c(COc2cc(OCc3cncc(C#N)c3)c(CN3CCCCC3(CO)CO)c3c2CCC3)cccc1-c1ccccc1 [Example 22, 5-(((4-((2,2-bis(hydroxymethyl)piperidin-1-yl)methyl)-7-((2-methyl-[1,1′-biphenyl]-3-yl)methoxy)-2,3-dihydro-1H-inden-5-yl)oxy)methyl)nicotinonitrile 2,2,2-trifluoroacetate]"
12,< 100,"Cc1c(COc2cc(OCc3cncnc3)c(CN3CCC3CO)c3c2CCC3)cccc1-c1ccccc1 (stereo not drawn) [Example 42, (1-((7-((2-methyl-[1,1′-biphenyl]-3-yl)methoxy)-5-(pyrimidin-5-ylmethoxy)-2,3-dihydro-1H-inden-4-yl)methyl)azetidin-2-yl)methanol]"
13,< 100,"Cc1c(COc2cc(OCc3cc(C#N)c[n+]([O-])c3)c(CN3CCCC[C@H]3CO)c3c2CCC3)cccc1-c1ccccc1 [Example 45, (S)-3-cyano-5-(((4-((2-(hydroxymethyl)piperidin-1-yl)methyl)-7-((2-methyl-[1,1′-biphenyl]-3-yl)methoxy)-2,3-dihydro-1H-inden-5-yl)oxy)methyl)pyridine 1-oxide]"
14,< 100,"Cc1c(COc2cc(OCc3cncc(C#N)c3)c(C(=O)NC3CCN(C)CC3)c3c2CCC3)cccc1-c1ccccc1 [Example 49, 5-((5-cyanopyridin-3-yl)methoxy)-7-((2-methyl-[1,1′-biphenyl]-3-yl)methoxy)-N-(1-methylpiperidin-4-yl)-2,3-dihydro-1H-indene-4-carboxamide]"
